34 compounds from patent US10617680B2 (CELGENE QUANTICEL RESEARCH, INC., priority 2017, dated 2020) can be followed below.

The term IC50 denotes the concentration that inhibits the measured activity by half.

Where two headings read alike, the source gives them in different places. A value given as a limit tells only on which side of the number the result lay.

In the experiment the target is CBP (Homo sapiens (Human), UniProt Q92793). The experiment in a line: In vitro CBP inhibition (AlphaScreen, biotinylated H4-tetraacetyl peptide). In kind it is binding. The method, then:
The CBP-inhibitory activity of the compounds described herein was determined by calculating the IC50. More specifically, CBP inhibitor activity was assayed as follows: CBP was cloned and expressed in E. coli as His-tag protein and purified by Nickel affinity and gel-filtration chromatography. […] CBP binding and inhibition is assessed by monitoring the interaction of biotinylated H4-tetraacetyl peptide (AnaSpec, H4K5/8/12/16(Ac), biotin-labeled) with the target using the AlphaScreen technology (Perkin Elmer). In a 384-well ProxiPlate CBP (50 nM final) was combined with peptide (20 nM final) in 50 mM HEPES (pH 7.3), 10 mM NaCl, 0.25 mM TCEP, 0.1% (w/v) BSA, and 0.005% (w/v) Brij-35 either in the presence of DMSO (final 0.4% DMSO) or compound dilution series in DMSO. After 20 min incubation at room temp, Alpha-streptavidin donor beads and Nickel Chelate acceptor beads were added to a final concentration of 5 μg/mL.
The ability of the compounds disclosed herein to inhibit CBP activity was quantified and the respective IC50 value determined.
A general note: Alpha assays give light when donor and acceptor beads are brought close together.

Where [1] appears, read: AlphaScreen, Table 29, read-out: CBP IC50.

Sequence of CBP (Q92793 1081-1197): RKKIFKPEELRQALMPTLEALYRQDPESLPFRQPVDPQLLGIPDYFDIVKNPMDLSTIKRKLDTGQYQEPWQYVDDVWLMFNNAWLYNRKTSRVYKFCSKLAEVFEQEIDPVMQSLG

As to `Cc1sc2c(c1C)C(c1ccc(Cl)cc1)=N[C@@H](CC(=O)OC(C)(C)C)c1nnc(C)n1-2` [JQ-1, tert-butyl (S)-2-(4-(4-chloro-phenyl)-2,3,9-trimethyl-6H-thieno[3,2-f][1,2,4]triazolo[4,3-a][1,4]diazepin-6-yl)acetate, reference compound], the IC50 (Table 30, read-out: CRREBBP IC50) was more than 5000 nM.
For the compound `CC(C)COc1cc(=O)n(C)cc1-c1cnn(C(C)c2ccccc2)c1` (stereo not shown) [Example 48, 4-isobutoxy-1-methyl-5-(1-(1-phenylethyl)-1H-pyrazol-4-yl) pyridin-2(1H)-one], under setting [1], the IC50 is less than 500 nM.
With `CC(C)Oc1ccc(-c2cc(=O)n(C)cc2-c2cnn(-c3ccccc3C(=O)O)c2)cn1` [Example 231, 2-[4-(6-Isopropoxy-1′-methyl-6′-oxo-1′,6′-dihydro-[3,4′]bipyridinyl-3′-yl)-pyra.zol-1-yl]-benzoic acid], the IC50 under setting [1] is less than 500 nM.
Consider `Cn1cc(-c2cnn(Cc3ccccc3)c2)c2cnccc2c1=O` [Example 9, 4-(1-benzyl-1H-pyrazol-4-yl)-2-methyl-2,6-naphthyridin-1(2H)-one], for which, under setting [1], the IC50 is less than 500 nM.
`Cn1cc(-c2cnn(CC3CC3)c2)c(-c2ccccc2)cc1=O` [Example 146, 5-(1-(cyclopropyl-methyl)-1H-pyrazol-4-yl)-1-methyl-4-phenyl-pyridin-2(1H)-one]: the IC50 under setting [1] is less than 500 nM.
The same measure, in the same setting: the figure for `Cn1cc(-c2cnn(-c3ccccc3C#N)c2)c(-c2ccc(Cl)cc2)cc1=O` [Example 214, 2-{4-[4-(4-Chloro-phenyl)-1-methyl-6-oxo-1,6-dihydro-pyridin-3-yl]-pyrazol-1-yl}-benzonitrile] is less than 500 nM.
The same measure, in the same setting: the same measure for `Cn1cc(-c2cnn(-c3ccccc3-c3nnn[nH]3)c2)c(C2CC2)cc1=O` [Example 301, 4-Cyclopropyl-1-methyl-5-{1-[2-(1H-tetrazol-5-yl)-phenyl]-1H-pyrazol-4-yl}-1H-pyridin-2-one]: less than 500 nM.
As for `CN(C)C(=O)c1ccn(-c2cc(=O)n(C)cc2-c2cnn(Cc3ccccc3)c2)c1` [Example 78, 1-(5-(1-benzyl-1H-pyrazol-4-yl)-1-methyl-2-oxo-1,2-dihydropyridin-4-yl)-N,N-dimethyl-1H-pyrrole-3carboxamide], the IC50 under setting [1] is less than 500 nM.
Same read-out and setting: the same measure for `COc1cccc(-c2cc(=O)n(C)cc2-c2cnn(Cc3ccccc3)c2)c1` [Example 113, 5-(1-benzyl-1H-pyrazol-4-yl)-4-(3-methoxyphenyl)-1-methyl-pyridin-2(1H)-one]: less than 500 nM; for `Cn1ccc(-c2cc(=O)n(C)cc2-c2cnn(-c3cccc(C4CC4)c3C#N)c2)cc1=O` [Example 380, 2-cyclopropyl-6-[4-[1-methyl-4-(1-methyl-2-oxo-4-pyridyl)-6-oxo-3-pyridyl]pyrazol-1-yl]benzonitrile]: less than 500 nM.
Same read-out and setting: the figure for `Cn1cc(-c2cn(C)c(=O)cc2C2CCCCC2)cn1` [Example 143, 4-cyclohexyl-1-methyl-5-(1-methyl-1H-pyrazol-4-yl)pyridin-2 (1H)-one] is 500 to 5000 nM; for `CCNc1ncc(-c2cc(=O)n(C)cc2-c2cnn(-c3cccc(Cl)c3C#N)c2)cn1` [Example 325, 2-chloro-6-(4-(4-(2-(ethylamino)pyrimidin-5-yl)-1-methyl-6-oxo-1,6-dihydropyridin-3-yl)-1H-pyrazol-1-yl)benzonitrile] it is less than 500 nM.
Consider `COc1cc(-c2cc(=O)n(C)cc2-c2cnn(-c3ccccc3C#N)c2)cc(OC)c1OC` [Example 246, 2-{4-[1-Methyl-6-oxo-4-(3,4,5-trimethoxy-phenyl)-1,6-dihydro-pyridin-3-yl]-pyrazol-1-yl}-benzonitrile], for which the IC50 under setting [1] lay in the range of 500 to 5000 nM.
On the same count and under the same terms, the same measure for `CN(C)c1ccc(-c2cc(=O)n(C)cc2-c2cnn(-c3cccc(Cl)c3C#N)c2)cn1` [Example 345, 2-chloro-6-{4-[6-(dimethylamino)-1′-methyl-6′-oxo-1′,6′-dihydro-[3,4′-bipyridine]-3′-yl]-1H-pyrazol-1-yl}benzonitrile]: less than 500 nM; for `C[C@H](c1ccccc1)n1cc(-c2cn(C)c(=O)cc2-n2cccn2)cn1` [Example 61, (R)-1-methyl-5-(1-(1-phenylethyl)-1H-pyrazol-4-yl)-4-(1H-pyrazol-1-yl)pyridin-2(1H)-one]: less than 500 nM; for `CCCNC(=O)Cn1cc(-c2cn(C)c(=O)cc2-c2ccccc2)cn1` [Example 141, 2-(4-(1-methyl-6-oxo-4-phenyl-1,6-dihydro-pyridin-3-yl)-1H-pyrazol-1-yl)-N-propylacetamide]: less than 500 nM.
On the same count and under the same terms, the figure for `Cn1cc(-c2cnn(Cc3ccccc3C#N)c2)ccc1=O` [Example 3, 2-((4-(1-methyl-6-oxo-1,6-dihydropyridin-3-yl)-1H-pyrazol-1-yl)methyl)benzonitrile] is 500 to 5000 nM; for `CC1CN(c2cc(=O)n(C)cc2-c2cnn(C(C)c3ccccc3)c2)C1` (stereo not shown) [Example 54, 1-methyl-4-(3-methylazetidin-1-yl)-5-(1-(1-phenylethyl)-1H-pyrazol-4-yl)pyridin-2(1H)-one] it is less than 500 nM; for `COCCNc1ncc(-c2cc(=O)n(C)cc2-c2cnn(-c3cccc(Cl)c3C#N)c2)cn1` [Example 326, 2-chloro-6-(4-(4-(2-((2-methoxyethyl)amino)pyrimidin-5-yl)-1-methyl-6-oxo-1,6-dihydropyridin-3-yl)-1H-pyrazol-1-yl)benzonitrile] it is less than 500 nM.
On the same count and under the same terms, the figure for `Cn1cc(-c2cnn(-c3cccc(Cl)c3C#N)c2)c(-c2ccc(OCC3CC3)nc2)cc1=O` [Example 357, 2-chloro-6-[4-[4-[6-(cyclopropylmethoxy)-3-pyridyl]-1-methyl-6-oxo-3-pyridyl]pyrazol-1-yl]benzonitrile] is less than 500 nM; for `CCOc1cc(=O)n(C)cc1-c1cnn(-c2cccc(OC)c2C#N)c1` [Example 177, 2-[4-(4-Ethoxy-1-methyl-6-oxo-1,6-dihydro-pyridin-3-yl)-pyrazol-1-yl]-6-methoxy-benzonitrile] it is less than 500 nM; for `Cn1cc(-c2cnn(-c3cccc(Cl)c3C#N)c2)c(-c2cnc(NC3CC3)nc2)cc1=O` [Example 322, 2-chloro-6-[4-[4-[2-(cyclopropylamino)pyrimidin-5-yl]-1-methyl-6-oxo-3-pyridyl]pyrazol-1-yl]benzonitrile] it is less than 500 nM.
`COc1ccc(C(=O)O)c(-n2cc(-c3cn(C)c(=O)cc3-c3ccc(F)cc3)cn2)c1` [Example 269, 2-{4-[4-(4-Fluoro-phenyl)-1-methyl-6-oxo-1,6-dihydro-pyridin-3-yl]-pyrazol-1-yl}-4-methoxy-benzoic acid]: the IC50 under setting [1] was less than 500 nM.
On to `Cc1ccc(-c2cc(=O)n(C)cc2-c2cnn(-c3cccc(F)c3C#N)c2)cn1` [Example 367, 2-(4-(1′,6-dimethyl-6′-oxo-1′,6′-dihydro-[3,4′-bipyridin]-3′-yl)-1H-pyrazol-1-yl)-6-fluorobenzonitrile], for which the IC50 under setting [1] was less than 500 nM.
On the same count and under the same terms, the same measure for `COc1cccc(-c2cc(=O)n(C)cc2-c2cnn(-c3ccccc3C#N)c2)c1` [Example 241, 2-{4-[4-(3-Methoxy-phenyl)-1-methyl-6-oxo-1,6-dihydro-pyridin-3-yl]-pyrazol-1-yl}-benzonitrile]: less than 500 nM.
On the same count and under the same terms, the same measure for `COc1ccc(C(=O)O)c(-n2cc(-c3cn(C)c(=O)cc3-c3ccnc(OC)c3)cn2)c1` [Example 272, 4-Methoxy-2-[4-(2′-methoxy-1-methyl-6-oxo-1,6-dihydro-[4,4′]bipyridinyl-3-yl)-pyrazol-1-yl]-benzoic acid]: less than 500 nM; for `CC(c1ccccc1)n1cc(-c2cn(C)c(=O)cc2-n2cccn2)cn1` (stereo not shown) [Example 53, 1-methyl-5-(1-(1-phenylethyl)-1H-pyrazol-4-yl)-4-(1H-pyrazol-1-yl) pyridin-2(1H)-one]: less than 500 nM; for `CCOc1cc(=O)n(C)cc1-c1cnn(Cc2ccc(-c3cnn(C)c3)cc2)c1` [Example 102, 4-ethoxy-1-methyl-5-{1-[4-(1-methyl-1H-pyrazol-4-yl)-benzyl]-1H-pyrazol-4-yl}-1H-pyridin-2-one]: less than 500 nM.
For the compound `Cn1cc(-c2cnn(-c3ccccc3C(=O)O)c2)c(-c2ccc(F)cc2)cc1=O` [Example 226, 2-{4-[4-(4-Fluoro-phenyl)-1-methyl-6-oxo-1,6-dihydro-pyridin-3-yl]-pyrazol-1-yl}-benzoic acid], the IC50 under setting [1] was less than 500 nM.
The same measure, in the same setting: the figure for `Cn1cc(-c2cnn(-c3cccc(Cl)c3C#N)c2)c(-c2ccc(OC3CC3)nc2)cc1=O` [Example 364, 2-chloro-6-[4-[4-[6-(cyclopropoxy)-3-pyridyl]-1-methyl-6-oxo-3-pyridyl]pyrazol-1-yl]benzonitrile] is less than 500 nM.
Same read-out and setting: the same measure for `Cn1cc(-c2cnn(-c3cccc(C4CC4)c3C#N)c2)c(-c2ccn(C3CC3)c(=O)c2)cc1=O` [Example 388, 2-cyclopropyl-6-(4-(1′-cyclopropyl-1-methyl-2′,6-dioxo-1,1′,2′,6-tetrahydro-[4,4′-bipyridin]-3-yl)-1H-pyrazol-1-yl)benzonitrile]: less than 500 nM; for `Cn1cc(-c2cc(=O)n(C)cc2-c2cnn(-c3ccccc3S(C)(=O)=O)c2)ccc1=O` [Example 287]: 500 to 5000 nM.
The same measure, in the same setting: the figure for `Cn1cc(-c2cn(C)c(=O)cc2-n2cccc2)cn1` [Example 83, 1-methyl-5-(1-methyl-1H-pyrazol-4-yl)-4-(1H-prrol-1-yl) pyridin-2(1H)-one] is less than 500 nM; for `COc1cc(-c2cc(=O)n(C)cc2-c2cnn(-c3cccc(F)c3C#N)c2)ccc1C` [Example 278, 2-fluoro-6-(4-(4-(3-methoxy-4-methylphenyl)-1-methyl-6-oxo-1,6-dihydro-pyridin-3-yl)-1H-pyrazol-1-yl)benzonitrile] it is less than 500 nM.
